# Experimental data taken from patent US20250186448A1 (Mezzion Pharma Co., Ltd., priority 2021, published 2025).
# Where “and” joins values, the source holds several entries; their conditions need not be identical. Equal values may be shown once.
# How the values were obtained:
# [1] = tested on: adolescents with Single Ventricle Heart Disease who underwent Fontan palliation; experiment: FALD study: liver stiffness by MR elastography; type: in vivo, human; set-up: MRE, Post Baseline: unit not given beside the values; MRE, Change from Baseline / MRE, Baseline: unit not given here
# Description: MR elastography uses a vibrating passive driver or “paddle” placed on the abdominal wall over the liver in order to generate in vivo shear waves. These shear waves can be tracked using an MRI modified phase contrast pulse sequence. Shear wave data is then used to generate color parameteric maps (elastograms) of liver stiffness that allow quantitative assessment (FIG. 4). […] Pairwise ICCs ranged from 0.67-0.82 when agreement was assessed between individual sequences across manufacturers (GE vs. Philips); the greatest agreement while fixing the pulse sequence was at 1.5 T using 2D GRE sequences (ICC=0.82, r=0.85). Trout […], Kohli R, Sprague […]. Prospective assessment of correlation between US acoustic radiation forced impulse and MR elastography in a pediatric population: Dispersion of US shear-wave speed measurement matters. Radiology 2016 December; 282(3): 544-552. The FALD study, ClinicalTrials.gov Identifier: NCT03430583, which is incorporated herein by reference in its entirety, was an open-label extension study that integrated with the FUEL Extension Trial. […] Both the U- cohort and the U+ cohort had liver stiffness measured by ultrasound and MR elastography (where available), and ELF biomarkers analyzed, as described above. […] The primary outcome measure of the FALD study was the range of liver stiffness in adolescents with Single Ventricle Heart Disease who underwent Fontan palliation. Secondary outcome measures included the effect of drug therapy on liver stiffness, and the effect of drug therapy on Enhanced Liver Fibrosis (ELF) score. See Clinical Trials.gov identifier NCT03430583, at p. 3. It is to be understood that present invention contemplates udenafil drug products that are therapeutically equivalent to the udenafil drug products of the present invention.
# [2] = tested on: adolescents with Single Ventricle Heart Disease who underwent Fontan palliation; experiment: FALD study (FUEL Extension): Enhanced Liver Fibrosis (ELF) score from serum HA, PIIINP, TIMP-1; type: in vivo, human; set-up: key to Baseline ELF, Mean (SD) / ELF Score, Post Baseline: ELF score: <7.7 none/mild, 7.7-9.8 moderate, 9.8-11.3 severe, >11.3 cirrhosis
# Text: The FALD study, ClinicalTrials.gov Identifier: NCT03430583, which is incorporated herein by reference in its entirety, was an open-label extension study that integrated with the FUEL Extension Trial. […] Both the U− cohort and the U+ cohort had liver stiffness measured by ultrasound and MR elastography (where available), and ELF biomarkers analyzed, as described above. […] The Enhanced Liver Fibrosis (ELF) scores were based on the serum levels of hyaluronic acid (HA), amino-terminal propeptide of type III collagen (PIIINP), and tissue inhibitor of metalloproteinase-1 (TIMP-1). Testing was performed by the FUEL-OLE Central Laboratory using the serum samples. In accordance with prior studies, we assigned those patients with scores of <7.7 to the no-fibrosis or mild fibrosis group, 7.7-9.8 to the moderate fibrosis group, 9.8-11.3 to the severe fibrosis group, and >11.3 to the cirrhosis group. The primary outcome measure of the FALD study was the range of liver stiffness in adolescents with Single Ventricle Heart Disease who underwent Fontan palliation. Secondary outcome measures included the effect of drug therapy on liver stiffness, and the effect of drug therapy on Enhanced Liver Fibrosis (ELF) score. See Clinical Trials.gov identifier NCT03430583, at p. 3. It is to be understood that present invention contemplates udenafil drug products that are therapeutically equivalent to the udenafil drug products of the present invention.
# [3] = Cohort U+ (udenafil for 78 weeks), individual subject
# [4] = Cohort U− (udenafil for 52 weeks), individual subject
# [5] = Cohort U− (udenafil for 52 weeks), individual subject, Post Baseline visit (52 week)
# [6] = individual subject listing, Safety Population
# [7] = Cohort U+ & U− Pooled, baseline ELF Cirrhosis (N 17)
# [8] = Cohort U+ & U− Pooled, baseline ELF moderate fibrosis (N 20)
# [9] = Cohort U+ & U− Pooled, baseline ELF moderate fibrosis (N 20), listed as udenafil
# [10] = Cohort U+ & U− Pooled, baseline ELF severe fibrosis (N 36)
# [11] = Cohort U+, baseline ELF Cirrhosis (N 9)
# [12] = Cohort U+, baseline ELF moderate fibrosis (N 8)
# [13] = Cohort U+, baseline ELF severe fibrosis (N 15)
# [14] = Cohort U−, baseline ELF Cirrhosis (N 8)
# [15] = Cohort U−, baseline ELF moderate fibrosis (N 12)
# [16] = Cohort U−, baseline ELF moderate fibrosis (N 12), listed as udenafil
# [17] = Cohort U−, baseline ELF severe fibrosis (N 21)
# [18] = FALD, cohort U+ (78 weeks udenafil)
structure (smiles),measurement,setting,value
"CCCOc1ccc(S(=O)(=O)NCCC2CCCN2C)cc1-c1nc2c(CCC)nn(C)c2c(=O)[nH]1 (centres unmarked) [Udenafil, udenafil]","MRE, % Change from Baseline",[1]; [3],2.863% and −2.262% and 12.04% and −0.4975% and 7.265% and −14.99% and −24.27% and 16.67% and 18.93% and 0.4975% and −29.4964% and 2.198% and −16.26% and 10.4% and −20.63% and −8.58% and −11.11% and −19.68% and −21.1704% and −12.02% and −6.235%
same,"MRE, Change from Baseline",[1]; [3],0.15 and −0.1 and 0.49 and −0.03 and 0.98 and 0.34 and −0.52 and −1.59 and 0.81 and 0.03 and −1.64 and 0.1 and −0.86 and 0.7 and −1.05 and −0.58 and −0.67 and −0.98 and −1.23 and −0.59 and −0.26
same,"MRE, Baseline","[1]; Cohort U+ (udenafil for 78 weeks), individual subject, Baseline visit",4.42 and 5.88 and 4.07 and 6.03 (3×) and 4.68 and 3.47 and 6.55 and 4.28 and 5.56 and 3.65 and 4.55 and 5.29 and 6.73 and 5.09 and 6.76 and 4.98 and 5.81 and 4.91 and 4.17 and 5.24
same,"MRE, Post Baseline","[1]; Cohort U+ (udenafil for 78 weeks), individual subject, Post Baseline visit (52 week)",5.39 and 4.32 (2×) and 6.86 and 4.56 and 6 and 5.02 and 2.95 and 4.96 and 5.09 and 6.06 and 3.92 and 4.65 and 4.43 and 7.43 and 4.04 and 6.18 and 5.36 and 4 and 4.58 and 3.91
same,"MRE, % Change from Baseline",[1]; [4],8.484% and 8.085%
same,"MRE, Change from Baseline",[1]; [4],0.61 and 0.19
same,"MRE, Post Baseline",[1]; [5],7.8 and 2.54
same,"MRE, % Change from Baseline",[1]; [6],2.488% and −28.79% and 3.632% and −2.018% and −21.1838% and 67.93% and 25.85% and 11.98% and −10.36% and 12.33% and −5.348% and 17.24% and 33.15% and −8% and −7.32%
same,"MRE, Change from Baseline",[1]; [6],0.1 and −1.48 and 0.15 and −0.11 and −1.36 and 3.05 and 1.22 and 0.72 and −0.43 (2×) and 0.64 and 1 and 1.2 and −0.44 and −0.53
same,"MRE, Post Baseline","[1]; individual subject listing, Safety Population, Post Baseline visit",4.12 and 3.66 and 4.28 and 5.34 and 5.06 (2×) and 7.54 and 5.94 and 6.73 and 3.72 and 5.83 and 2.81 and 7.61 and 6.8 and 4.82 and 6.71
same,Patients with Improved ELF fibrosis category,"[2]; Cohort U+ & U− Pooled, 41/73",41/73 (56%) Improved
same,"Patients with post baseline ELF score Mild, n (%)",[2]; [7],0
same,"Patients with post baseline ELF score Sev, n (%)",[2]; [7],13 (76%)
same,"Patients with post baseline ELF score Sev, n (%)","[2]; Cohort U+ & U− Pooled, baseline ELF Cirrhosis (N 17), listed as udenafil",6
same,"Patients with post baseline ELF score Mild, n (%)",[2]; [8],1 (5%)
same,"Patients with post baseline ELF score Sev, n (%)",[2]; [8],8 (40%)
same,"Patients with post baseline ELF score Mild, n (%)",[2]; [9],1
same,"Patients with post baseline ELF score Sev, n (%)",[2]; [9],8
same,"Patients with post baseline ELF score Mild, n (%)",[2]; [10],0
same,"Patients with post baseline ELF score Sev, n (%)",[2]; [10],13 (36%)
same,"Patients with post baseline ELF score Sev, n (%)","[2]; Cohort U+ & U− Pooled, baseline ELF severe fibrosis (N 36), listed as udenafil",8
same,Patients with Improved ELF fibrosis category,"[2]; Cohort U+, 19/32",19/32 (59%) Improved
same,"Patients with post baseline ELF score Mild, n (%)",[2]; [11],0
same,"Patients with post baseline ELF score Sev, n (%)",[2]; [11],7 (78%)
same,"Patients with post baseline ELF score Sev, n (%)","[2]; Cohort U+, baseline ELF Cirrhosis (N 9), listed as udenafil",7
same,"Patients with post baseline ELF score Mild, n (%)",[2]; [12],0
same,"Patients with post baseline ELF score Sev, n (%)",[2]; [12],0
same,"Patients with post baseline ELF score Mild, n (%)",[2]; [13],0
same,"Patients with post baseline ELF score Sev, n (%)",[2]; [13],5 (33%)
same,"Patients with post baseline ELF score Sev, n (%)","[2]; Cohort U+, baseline ELF severe fibrosis (N 15), listed as udenafil",5
same,"ELF Score, % Change from Baseline",[2]; [4],−7.61% and −11.19% and −20.06% and −15.92% and 10.85% and 9.365%
same,"ELF Score, Change from Baseline",[2]; [4],−0.78 and −1.22 and −2.03 and −1.85 and 0.97 and 0.9 and 0.26
same,"ELF Score, Post Baseline",[2]; [5],9.47 and 9.68 and 8.09 and 9.77 and 9.91 and 10.51 and 9.67
same,Patients with Improved ELF fibrosis category,"[2]; Cohort U−, 22/41",22/41 (54%) Improved
same,"Patients with post baseline ELF score Mild, n (%)",[2]; [14],0
same,"Patients with post baseline ELF score Sev, n (%)",[2]; [14],6 (75%)
same,"Patients with post baseline ELF score Sev, n (%)","[2]; Cohort U−, baseline ELF Cirrhosis (N 8), listed as udenafil",6
same,"Patients with post baseline ELF score Mild, n (%)",[2]; [15],1 (8%)
same,"Patients with post baseline ELF score Sev, n (%)",[2]; [15],8 (67%)
same,"Patients with post baseline ELF score Mild, n (%)",[2]; [16],1
same,"Patients with post baseline ELF score Sev, n (%)",[2]; [16],8
same,"Patients with post baseline ELF score Mild, n (%)",[2]; [17],0
same,"Patients with post baseline ELF score Sev, n (%)",[2]; [17],8 (38%)
same,"Patients with post baseline ELF score Sev, n (%)","[2]; Cohort U−, baseline ELF severe fibrosis (N 21), listed as udenafil",8
same,"ELF Percent Change: Week 52-Baseline, Median","[2]; FALD, Total",−7.2%
same,"Week 52 ELF, Median","[2]; FALD, Total",9.7
same,"Baseline ELF, Mean (SD)","[2]; FALD, Total (U+ and U−)",10.4
same,"Week 52 ELF, Mean (SD)","[2]; FALD, Total (U+ and U−)",9.8
same,"ELF Percent Change: Week 52-Baseline, Mean (SD)","[2]; FALD, Total, p <0.0001 vs 0",−6.8 (7.69) %
same,"Week 52 ELF, Median","[2]; FALD, cohort U+",9.6
same,"Baseline ELF, Mean (SD)","[2]; FALD, cohort U+ (6 months udenafil in FUEL before baseline)",10.5
same,"Baseline ELF, Mean (SD)","[2]; FALD, cohort U+ (6 months udenafil in FUEL before baseline), listed as udenafil",10.5
same,"Week 52 ELF, Mean (SD)","[2]; FALD, cohort U+ (18 months udenafil, 87.5 mg twice daily)",9.7
same,"Week 52 ELF, Mean (SD)","[2]; FALD, cohort U+ (18 months udenafil, 87.5 mg twice daily), listed as udenafil",9.7
same,Patients with improved ELF scores,[2]; [18],About 94%
same,Subjects with a decrease (improvement) in ELF score,[2]; [18],all but 2 of 31
same,"ELF Percent Change: Week 52-Baseline, Mean (SD)","[2]; FALD, cohort U+, p <0.0001 vs 0",−8.0 (5.56) %
same,"Average improvement of ELF score, baseline to week 52","[2]; FALD, cohort U+, p=0.0001",approximately 8%
same,"ELF Percent Change: Week 52-Baseline, Median","[2]; FALD, cohort U−",−6.1%
same,"Week 52 ELF, Median","[2]; FALD, cohort U−",9.9
same,"Week 52 ELF, Mean (SD)","[2]; FALD, cohort U− (1 year udenafil, 87.5 mg twice daily)",9.8
same,"Week 52 ELF, Mean (SD)","[2]; FALD, cohort U− (1 year udenafil, 87.5 mg twice daily), listed as udenafil",9.8
same,"Subjects with a decrease (improvement) in ELF score, number","[2]; FALD, cohort U− (52 weeks udenafil), of 40 subjects",about 30
same,"Baseline ELF, Mean (SD)","[2]; FALD, cohort U− (udenafil-naïve at baseline)",10.3
same,"Baseline ELF, Mean (SD)","[2]; FALD, cohort U− (udenafil-naïve at baseline), listed as udenafil",10.3
same,"Average improvement of ELF score, baseline to week 52","[2]; FALD, cohort U−, based on paired data",about 5.9%
same,"ELF Percent Change: Week 52-Baseline, Mean (SD)","[2]; FALD, cohort U−, p 0.0001 vs 0",−5.9 (8.98) %
same,Subjects with an improved ELF score,"[2]; FALD, overall (U+ and U−)",about 84%
